Laboratory results published in the NIST ThermoML archive (doi:10.1016/j.jct.2014.07.019).
Numbers after ± are expanded uncertainties.

Assay: xn = mol fraction of the nth substance listed
Conditions: 100 kPa, Liquid; for speed of sound: Frequency=3 MHz, Sing-around technique in a fixed-path interferometer; for mass density: Vibrating tube method

CCCCOCC(C)O (stereo not given) [1-butoxy-2-propanol] + CCCO
Conditions | mass density, 293.15 K [kg/m3] | mass density, 298.15 K [kg/m3] | mass density, 303.15 K [kg/m3] | mass density, 308.15 K [kg/m3] | mass density, 313.15 K [kg/m3] | speed of sound, 293.15 K [m/s] | speed of sound, 298.15 K [m/s] | speed of sound, 303.15 K [m/s] | speed of sound, 308.15 K [m/s] | speed of sound, 313.15 K [m/s]
x1 = 0.0573 | 812.915 ± 0.16 | 808.937 ± 0.16 | 804.905 ± 0.17 | 800.798 ± 0.17 | 796.651 ± 0.17 | 1230.8 ± 1.3 | 1213.8 ± 1.3 | 1197.1 ± 1.2 | 1180.4 ± 1.2 | 1164.1 ± 1.2
x1 = 0.1001 | 818.814 ± 0.16 | 814.76 ± 0.16 | 810.658 ± 0.16 | 806.519 ± 0.16 | 802.334 ± 0.17 | 1235.7 ± 1.3 | 1218.8 ± 1.3 | 1202 ± 1.3 | 1185.4 ± 1.2 | 1169 ± 1.2
x1 = 0.1558 | 825.901 ± 0.16 | 821.803 ± 0.16 | 817.667 ± 0.16 | 813.493 ± 0.16 | 809.279 ± 0.16 | 1241.5 ± 1.3 | 1224.8 ± 1.3 | 1208 ± 1.3 | 1191.3 ± 1.2 | 1174.7 ± 1.2
x1 = 0.2031 | 831.228 ± 0.16 | 827.109 ± 0.16 | 822.949 ± 0.16 | 818.753 ± 0.16 | 814.513 ± 0.16 | 1246.3 ± 1.3 | 1229.3 ± 1.3 | 1212.5 ± 1.3 | 1195.7 ± 1.2 | 1179.1 ± 1.2
x1 = 0.2532 | 836.415 ± 0.16 | 832.273 ± 0.16 | 828.091 ± 0.16 | 823.867 ± 0.16 | 819.599 ± 0.16 | 1250.7 ± 1.3 | 1233.6 ± 1.3 | 1216.8 ± 1.3 | 1199.8 ± 1.3 | 1183.1 ± 1.2
x1 = 0.3033 | 841.124 ± 0.15 | 836.955 ± 0.16 | 832.749 ± 0.16 | 828.501 ± 0.16 | 824.211 ± 0.16 | 1254.6 ± 1.3 | 1237.5 ± 1.3 | 1220.5 ± 1.3 | 1203.5 ± 1.3 | 1186.7 ± 1.2
x1 = 0.4046 | 849.477 ± 0.15 | 845.264 ± 0.15 | 841.013 ± 0.15 | 836.72 ± 0.16 | 832.382 ± 0.16 | 1261.2 ± 1.3 | 1243.9 ± 1.3 | 1226.8 ± 1.3 | 1209.6 ± 1.3 | 1192.7 ± 1.2
x1 = 0.5048 | 856.464 ± 0.15 | 852.232 ± 0.15 | 847.934 ± 0.15 | 843.623 ± 0.15 | 839.27 ± 0.16 | 1266.3 ± 1.3 | 1248.9 ± 1.3 | 1231.7 ± 1.3 | 1214.4 ± 1.3 | 1197.2 ± 1.2
x1 = 0.6055 | 862.441 ± 0.15 | 858.152 ± 0.15 | 853.82 ± 0.15 | 849.452 ± 0.15 | 845.054 ± 0.15 | 1270.3 ± 1.3 | 1252.9 ± 1.3 | 1235.6 ± 1.3 | 1218.2 ± 1.3 | 1201 ± 1.3
x1 = 0.7052 | 867.521 ± 0.15 | 863.197 ± 0.15 | 858.839 ± 0.15 | 854.443 ± 0.15 | 850.006 ± 0.15 | 1273.2 ± 1.3 | 1255.7 ± 1.3 | 1238.4 ± 1.3 | 1221.1 ± 1.3 | 1203.8 ± 1.3
x1 = 0.807 | 872.037 ± 0.15 | 867.684 ± 0.15 | 863.298 ± 0.15 | 858.874 ± 0.15 | 854.415 ± 0.15 | 1275.7 ± 1.3 | 1258.3 ± 1.3 | 1240.8 ± 1.3 | 1223.4 ± 1.3 | 1206.2 ± 1.3
x1 = 0.8546 | 873.936 ± 0.15 | 869.566 ± 0.15 | 865.165 ± 0.15 | 860.735 ± 0.15 | 856.272 ± 0.15 | 1276.8 ± 1.3 | 1259.3 ± 1.3 | 1241.8 ± 1.3 | 1224.2 ± 1.3 | 1206.6 ± 1.3
x1 = 0.9041 | 875.766 ± 0.15 | 871.424 ± 0.15 | 867.019 ± 0.15 | 862.582 ± 0.15 | 858.113 ± 0.15 | 1277.7 ± 1.3 | 1260.2 ± 1.3 | 1242.6 ± 1.3 | 1225 ± 1.3 | 1207.4 ± 1.3
x1 = 0.9537 | 877.527 ± 0.15 | 873.128 ± 0.15 | 868.704 ± 0.15 | 864.265 ± 0.15 | 859.772 ± 0.15 | 1278.5 ± 1.3 | 1260.8 ± 1.3 | 1243.2 ± 1.3 | 1225.6 ± 1.3 | 1208.1 ± 1.3
x1 = 1 | 879.031 ± 0.15 | 874.632 ± 0.15 | 870.204 ± 0.15 | 865.737 ± 0.15 | 861.241 ± 0.15 | 1279 ± 1.3 | 1260.9 ± 1.3 | 1242.9 ± 1.3 | 1224.9 ± 1.3 | 1207 ± 1.3
